Columns and labels:
pigs = details: dietary; cited from earlier work
[1] = test system: C57BL/6J mice on high fat diet; assay: Butyrate at 2.5% w/w in HFD; assay type: in vivo, mouse; details: butyrate 2.5% w/w in HFD
Protocol: Sodium butyrate (#303410, Sigma) was tested at two dosages, 5% and 2.5% w/w in HFD. The metabolic effects presented above were from 5%. […] Insulin sensitivity at 12 weeks as indicated by insulin tolerance test (ITT) and glucose tolerance test (GTT) at 13 weeks was higher in the butyrate group than that of the control group (FIGS. 12C and 12D). For the glucose tolerance test, after an overnight fast, 2.5 g/kg glucose was injected intraperitoneally. Blood glucose was measured as described above at 0, 30, 60 and 120 min after injection. […] show values as the means±SE (N=8 in each group), and * indicates p<0.05.

3T3-L1 cells = assay: Adipogenesis in 3T3-L1 cells (qRT-PCR, Oil red O); assay type: cell-based
Protocol: (§1) The epididymal fat pad was examined to test this effect of butyrate. The tissue was collected at 13 weeks on HFD (18 weeks in age) and used to make a tissue slide (FIG. 3A). After H&E staining, the slide was photographed under a microscope at magnification 20× (FIG. 3A). Gene expression was determined by qRT-PCR at day 8 after induction of cell differentiation of 3T3-L1 cells. Butyrate was used at 100 uM during induction of adipogenesis. Triglycerides in the 3T3-L1 mature adipocyte cells were quantified using Oil red 0 staining at the day 8 post-induction of differentiation (FIG. 3C). In addition, levels of mRNA for leptin, adiponectin, F4/80 (macrophage marker), TNF-α, and iNOS were determined in the epididymal fat and their relative levels are presented in bar figures (FIGS. 3D-3H). In FIGS. 3A-3H, data are represented as mean±SE (n=8). *P<0.05, **P<0.001.
To confirm the butyrate effect on adipocytes, 3T3-L1 cells were used to study butyrate activity in vitro. The cells were treated with butyrate during induction of adipogenesis, which was determined by expression of adipocyte-specific genes and triglyceride amount. […] However, expression of leptin was reduced by butyrate (FIG. 3B). The reduction may be a result of a decrease in triglyceride accumulation in the differentiated 3T3-L1 adipocytes (FIG. 3C). The triglyceride level was reduced 50% in the cells treated by butyrate.

L6 muscle cells = assay: Immunoblot of L6 myotubes; assay type: cell-based; details: 500 μM sodium butyrate, 4 hours
Protocol: To further test the effect of butyrate on muscle, AMPK and PGC-1α were assayed in L6 muscle cells treated with butyrate. Differentiated L6 myotubes were starved in 0.25% BSA DMEM for overnight. The cells were treated with 500 μM of sodium butyrate for 4 hours and analyzed in an immunoblot. […] In the same culture, the PGC-1α protein was increased (FIG. 6A).

[2] = test system: class I and class II histone deacetylases (HDACs); details: cited from earlier work
[3] = test system: obese C57BL/6J mice on HFD; assay: Treatment of obese mice (16 weeks HFD) with butyrate for 5 weeks; assay type: in vivo, mouse
Protocol: In the above examples, butyrate was administrated together with HFD during the induction of obesity. To test butyrate in the treatment of obesity and insulin resistance, butyrate was administered to obese mice that had been on HFD for 16 weeks. Obesity was induced in C57BL/6J mice fed on HFD for 16 weeks (21 weeks in age). The obese mice were then treated with butyrate through food supplement for 5 weeks. […] In the control group, the body weight was increased by 15.8% (from 35.9 g to 41.6 g) during the same time period. Values are the means±SE (N=8 in each group). * P<0.05.
Fat content was determined in the body using NMR at the end of 5 week treatment with butyrate. Consistent with the change in body weight, the fat content was reduced by 10% in the butyrate group (FIG. 9B). At the end of 5 weeks, ITT was performed after 4 hours fast and HOMA IR was measured as described above. […] Values are the means±SE (N=8 in each group). * P<0.05.

epididymal fat pad = assay: White adipose tissue: fat pad morphology and gene expression; assay type: in vivo, mouse
Protocol: Total RNA was extracted from frozen tissues (kept at −80° C.) using Tri-Reagent (T9424, Sigma) as described elsewhere (16). Taqman RT-PCR primer and probe were used to determine mRNA for PGC-1α (Mm00447183_m1), UCP-1 (Mm00494069_m1), PPARδ (Mm01305434_m1) and CPT1b (Mm00487200_m1). The reagents were purchased from Applied Biosystems (Foster City, Calif.). Mouse ribosome 18S rRNA_s1 (without intron-exon junction) was used as an internal control. Reaction was conducted with 7900 HT Fast real time PCR System (Applied Biosystems, Foster City, Calif.).
Fresh tissues (muscle, fat and liver) were collected at 16 weeks of age after 12 weeks butyrate feeding and fixed in 10% neutral buffered formalin solution (HT50-1-2, Sigma). The tissue slides were obtained through serial cross-section cutting at 8 um thickness and processed with a standard procedure. Briefly, the slides were deparaffinated and stained in haematoxylin (#101542, Surgipath) for 15 min, and rinsed in water until sections are blue. Then, slides were stained in Eosin (E4009, Sigma), dehydrated quickly in 95% ethanol and treated with […]. The sections were mounted and photographed with Nikon microscope (Eclipse TS100, Japan).
as §1

[4] = butyrate 100 uM during induction of adipogenesis, qRT-PCR day 8
[5] = butyrate 5% w/w in HFD vs control, mRNA

CCCC(=O)[O-].[Na+] [sodium butyrate]
daily body mass gain (pigs): increase
body weight ([1]; 12 weeks): reduced
insulin sensitivity by insulin tolerance test (ITT) ([1]; 12 weeks): higher
fat content ([1]; 12 weeks, NMR): reduced
insulin sensitivity by glucose tolerance test (GTT) ([1]; 13 weeks, 2.5 g/kg glucose i.p.): higher
adipocyte-specific markers (PPARδ, aP2, SREBP, and adiponectin) (3T3-L1 cells; [4]): not reduced
expression of leptin (3T3-L1 cells; [4]): reduced
triglyceride level, reduction (3T3-L1 cells; butyrate 100 uM, Oil red O, day 8 post-induction): 50%
AMPK phosphorylation (L6 muscle cells): increased
PGC-1α protein (L6 muscle cells): increased
p38 phosphorylation (L6 muscle cells): increased
effect on class I and class II HDACs [2]: inhibition
HOMA-IR, reduction ([3]; 5-week butyrate treatment): 50%
fasting glucose, reduction ([3]; 5-week butyrate treatment): 30%
fasting glucose after treatment ([3]; 5-week butyrate treatment, from 131): 98.6 mg/dL
loss of original body weight ([3]; 5-week treatment with butyrate in food): 10.2%
ITT ([3]; end of 5-week butyrate treatment, 4 hours fast): improved significantly
fat content, reduction ([3]; end of 5-week butyrate treatment, NMR): 10%
body weight after treatment ([3]; end of 5-week butyrate treatment, from 37.6 g): 34.4 g
TNF-α expression in epididymal fat (epididymal fat pad; [5]): reduced
iNOS expression in epididymal fat (epididymal fat pad; [5]): reduced
leptin expression in epididymal fat (epididymal fat pad; [5]): lower level
macrophage marker F4/80 expression in epididymal fat (epididymal fat pad; [5]): reduced
epididymal fat pad mass, less than control (epididymal fat pad; butyrate 5% w/w in HFD, 13 weeks): 80%
adipocyte size, smaller than control (epididymal fat pad; butyrate 5% w/w in HFD, 13 weeks, H&E): 50%
adiponectin expression in epididymal fat, higher than control (epididymal fat pad; butyrate 5% w/w in HFD, mRNA): 50%

Reference: patent US20130123358A1, “Metabolic Benefits to Butyrate as a Chronic Diet Supplement” (priority 2009, published 2013)
